pIC50: −log10 of the molar value. Calls of active or inactive are those of the source. The calls are words filed in the database; no cut-off is given here.
What was measured:
Type in all cases: functional, cell-based
HepG2 = assay: Cytotoxicity against human HepG2 cells after 3 days by MTT assay; settings: for pIC50: HepG2, 72 h
ChaGo = assay: (§1) Cytotoxicity against human ChaGo cells after 3 days by MTT assay
BT-474 = assay: Cytotoxicity against human BT474 cells after 3 days by MTT assay
SW-620 = assay: Cytotoxicity against human SW620 cells after 3 days by MTT assay
KATO III cell = assay: Cytotoxicity against human KATO III cells after 3 days by MTT assay
[1] = as §1; settings: 72 h

Row | SMILES | Activity (HepG2) | Activity (ChaGo) | Activity (BT-474) | Activity (SW-620) | Activity (KATO III cell) | pIC50 [1] | pIC50 (HepG2)
1 | COC(=O)[C@H](OC(C)=O)[C@H]1[C@]2(C)C[C@]3(O)[C@H]([C@H]2OC(C)=O)[C@H]2O[C@@]4(C)O[C@@]5(CC[C@@]6(C)[C@H](c7ccoc7)OC(=O)C[C@@]6(O)[C@@]25O4)[C@]13C | inactive | inactive | inactive | inactive | inactive |  | 
2 | C=C1[C@@H]2CC[C@@]3(C)[C@H](c4ccoc4)OC(=O)C[C@]13O[C@H]1CC(=O)C(C)(C)[C@H](CC(=O)OC)[C@]12C | inactive | inactive | inactive | inactive | inactive |  | 
3 | COC(=O)CC[C@@H]1[C@@H](C)C(=O)C([C@@H](OC(C)=O)[C@@]2(O)C(=O)CC[C@]3(C)C2=CC(=O)O[C@H]3c2ccoc2)=CC1(C)C [XYLOGRANATIN C] |  |  | inactive | inactive | inactive | 5.04 | 
4 | CC(=O)O[C@@H]1C[C@H]2C(C)(C)C(=O)C=C[C@]2(C)[C@H]2CC[C@]3(C)C(=CC[C@H]3[C@@H]3COC(=O)C3)[C@@]21C | inactive | inactive | inactive | inactive | inactive |  | 
5 | COC(=O)[C@H](OC(C)=O)[C@H]1[C@]2(C)C[C@]3(O)[C@@](OC(C)=O)([C@H]4O[C@@]5(C)O[C@@]6(CC[C@@]7(C)[C@H](c8ccoc8)OC(=O)C[C@@]7(O)[C@@]46O5)[C@]13C)[C@H]2OC(C)=O | inactive | inactive | inactive | inactive | inactive |  | 
6 | CC1(C)C(=O)C=C[C@]2(C)[C@H]3CC[C@@]4(C)[C@H](c5ccoc5)OC(=O)[C@H]5O[C@]54[C@]3(C)C(=O)C[C@@H]12 [DEACETOXY-7-OXOGEDUNIN] |  |  |  |  |  |  | 4.79
7 | COC(=O)C[C@H]1C(C)(C)C(=O)[C@@H]2CC3=C4CC(=O)O[C@@H](c5ccoc5)[C@]4(C)CC[C@@H]3[C@@]1(C)C2=O | inactive | inactive | inactive | inactive | inactive |  | 
8 | CC(=O)O[C@@H]1C[C@H]2C(C)(C)C(=O)C=C[C@]2(C)[C@H]2CC[C@]3(C)C(=CC[C@H]3[C@H]3CO[C@@H](C4(O)OC4(C)C)C3)[C@@]21C (stereo not given in full) | inactive | inactive | inactive | inactive | inactive |  | 
9 | CC1(C)C(=O)C=C[C@]2(C)[C@H]3CC[C@@]4(C)[C@H](c5ccoc5)OC(=O)[C@H]5O[C@]54[C@]3(C)[C@H](O)C[C@@H]12 [DEACETYLGEDUNIN] |  |  | inactive | inactive | inactive | 4.80 | 4.99
10 | COC(=O)C[C@H]1C(C)(C)[C@@H]2O[C@@]34C[C@@H]2C(=O)[C@]1(C)[C@H]3CC[C@@]1(C)[C@@H](c2ccoc2)OC(=O)C[C@]14O | inactive | inactive | inactive | inactive | inactive |  | 
11 | COC(=O)C[C@H]1C(C)(C)[C@H](O)[C@@H]2CC3=C4CC(=O)O[C@@H](c5ccoc5)[C@]4(C)CC[C@@H]3[C@@]1(C)C2=O | inactive | inactive | inactive | inactive | inactive |  | 
12 | CC(=O)O[C@@H]1C[C@H]2C(C)(C)C(=O)C=C[C@]2(C)[C@H]2CC[C@]3(C)C(=CC[C@H]3[C@H]3CO[C@@H]([C@H](O)C(C)(C)O)C3)[C@@]21C | inactive | inactive | inactive | inactive | inactive |  | 
13 | CC(=O)OC1OC(C2OC2(C)C)C[C@@H]1[C@H]1CC=C2C3(C)C(O)CC4C(C)(C)C(=O)CC[C@]4(C)[C@H]3CC[C@@]21C (stereo not given in full) | inactive | inactive | inactive | inactive | inactive |  | 
14 | CC(=O)O[C@@H]1C[C@H]2C(C)(C)C(=O)C=C[C@]2(C)[C@H]2CC[C@]3(C)C(=CC[C@H]3[C@H]3CO[C@@H]([C@@H](O)C(C)(C)O)C3)[C@@]21C | inactive | inactive | inactive | inactive | inactive |  | 
